Test results as given in PMC7764606 (Cancers, 2020).
Where two headings read alike, the source gives them in different places. Blank lines part the entries; values can stand above or below the compound they belong to.

Key:
recombinant AKR1B10 = test system: T1, recombinant AKR1B10; test: Reduction of Dau by recombinant AKR1B10 (UHPLC detection of Dau-ol); type: biochemical, Human; conditions: Dau 500 µM, relative to DMSO
T1 construct: made in house; host or cells: Escherichia coli
Procedure: (§1) Human recombinant CREs (CBR1, AKR1A1, 1B1, 1B10, 7A2, and 1C3) were produced by an Escherichia coli expression system as per methods described previously. For the inhibitory assay, each recombinant enzyme, CBR1 (1 µg), AKR1A1 (1 µg), AKR1B1 (5 µg), AKR1B10 (5 µg), AKR7A2 (3 µg), or AKR1C3 (1.5 µg) was incubated with BTK inhibitors at different concentrations (10 and 50 µM) and the substrate Dau (500 µM). For analysis using the Lineweaver-Burk plot, 1.5 µg of recombinant AKR1C3 was incubated with DMSO or BTK inhibitors (1, 5, and 10 µM) and Dau (200, 400, 600, 800, 1000, and 2000 µM). […] The incubations and further metabolite detection were further performed by using ultra-high-performance liquid chromatography (UHPLC) as per methods described previously.

[1] = test system: T2, AKR1C3 in HCT116-C3 cells; test: Dau metabolism to Dau-ol in HCT116 cells transiently overexpressing AKR1C3; type: cell-based, human; conditions: 5 h
T2 construct: expressed in transfected cells; host or cells: HCT116
Procedure: (§2) HCT116 cells were seeded (1.25 × 10^5 cells/well) in 24-well plates and cultured for 24 h. For the transient expression of the recombinant human AKR1C3, the cells were transfected with a pCI_AKR1C3 or empty pCI plasmid as control (previously described in a study by Hofman et al.) according to the manufacturer’s instructions (jetPRIME® Transfection Reagent; Polyplus Transfection®, Illkirch, France). For each 24-well plate, a mixture of 0.75 µL of the jetPRIME® Transfection Reagent and 0.25 µg of plasmid was incubated for 10 min at room temperature. Then, polyplexes were added to the HCT116 cells with 0.5 mL of fresh DMEM supplemented with 10% FBS and incubated for 24 h (37 °C, 5% CO2). The expression of recombinant AKR1C3 was verified by western blotting as per methods described previously.
After transfection of HCT116 cells or seeding of A549 cells (25 × 10^3 cells/well) in 24-well plates for 24 h, the medium was harvested and replaced with DMEM supplemented with 10% FBS containing 1 µM daunorubicin, with or without increasing concentrations (1, 5, and 10 μM) of BTK inhibitors. Cells were incubated (37 °C, 5% CO2) for 2.5 and 5 h (transfected HCT116) or only 5 h (A549). Then, the medium was collected and the cells were lysed in lysis buffer (25 mM Tris, 150 mM NaCl, and 1% Triton X-100, pH 7.8) for 15 min at room temperature. The collected medium was combined with cell lysate for further extraction and analysis of metabolites, as per methods described previously.

recombinant AKR1C3 = molecular target: T3, recombinant AKR1C3 (Homo sapiens, UniProt P42330); test: Reduction of Dau by recombinant AKR1C3 (UHPLC detection of Dau-ol); type: biochemical; conditions: for reduction of AKR1C3 activity (Dau reduction): Dau 500 µM, relative to DMSO; for Ki: read-out: Ki^app (Morrison equation for tight-binding inhibitors)
T3 construct: made in house; host or cells: Escherichia coli
T3 sequence (P42330 1-323): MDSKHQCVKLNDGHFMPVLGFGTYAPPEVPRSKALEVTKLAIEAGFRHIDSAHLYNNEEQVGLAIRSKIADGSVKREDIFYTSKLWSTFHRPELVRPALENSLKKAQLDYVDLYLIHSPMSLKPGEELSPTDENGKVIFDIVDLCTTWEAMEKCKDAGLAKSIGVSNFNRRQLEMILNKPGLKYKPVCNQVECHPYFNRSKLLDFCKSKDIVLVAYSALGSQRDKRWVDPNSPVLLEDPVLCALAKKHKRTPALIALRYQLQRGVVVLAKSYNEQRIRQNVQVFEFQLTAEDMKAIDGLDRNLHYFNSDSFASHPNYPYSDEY
Procedure: as §1

[2] = test system: AKR1C3 expression in A549 cells; test: AKR1C3 protein levels in A549 cells by western blotting; type: cell-based, human; conditions: 1, 5 and 10 µM, 72 h, western blot relative to β-actin
Procedure: A549 cells were incubated with DMSO or BTK inhibitors (1, 5, and 10 µM) for 72 h, and then total protein was extracted for analysis of AKR1C3 expression by western blotting (WB) as per methods described previously. A representative WB is shown for IBR (A) and ACA (B) incubations, and bars represent AKR1C3 protein levels as determined by densitometry relative to β-actin (n = 3, mean ± SD). Uncropped images from WB are available in Figure S1 in the Supplementary Materials. On the other hand, HCT116-EV and HCT116-C3 cells were treated with increasing concentrations of IBR (C) and ACA (D) for 72 h, and their viability was assessed by MTT assay. Graphs represent a comparison of the dose-response curves for percentages of cell viability in each cell line (n = 6, mean ± SD).

HCT116-EV cells = test: MTT cell viability, HCT116-EV cells (incl. Chou-Talalay analysis); type: cell-based, human
Procedure: as §2
(§3) Twenty-four hours prior to the experiment, transfected HCT116 cells (8 × 10^3 cells/well) or A549 cells (5 × 10^3 cells/well) were seeded in 96-well plates. The cell culture medium was replaced with fresh medium containing increasing amounts of Dau (final concentrations: 0.01, 0.05, 0.1, 0.25, 0.5, 0.75, 1, and 10 µM) with or without BTK inhibitors (final concentrations: 1, 5, and 10 µM). After 72 h of incubation under standard conditions (37 °C, 5% CO2), cell viability was assessed by MTT (Sigma-Aldrich, Prague, Czech Republic) assay. For this, 50 µL of the MTT solution (3 mg/mL) was added to each well and incubated for 30 min. The supernatant was collected, and the cell monolayers were dissolved in 100 µL of DMSO. The absorbance was measured at 570 and 690 nm by a microplate reader Infinite M200 (Tecan, Salzburg, Austria), and the background values at 690 nm were subtracted from the absorbance obtained at 570 nm. The half-maximal inhibitory concentrations (IC50) were calculated using GraphPad Prism 8.1.2. The drug combination pharmacodynamics were determined by the Chou-Talalay method using the CompuSyn ver. 3.0.1 software (ComboSyn Inc., Paramus, NJ, USA).

[3] = single oral dose of 140 mg; cited from earlier work
A549 cells = test: MTT cell viability, A549 cells (incl. Chou-Talalay analysis); type: cell-based, human
Procedure: as §3

[4] = BTK-inhibitor 5 µM + Dau 0.25 µM
[5] = BTK-inhibitor 5 µM + Dau 0.50 µM

- reduction of AKR1C3 activity (Dau reduction) (recombinant AKR1C3; 10 µM BTK inhibitor): 92.17% ± 3.43%
- reduction of AKR1C3 activity (Dau reduction) (recombinant AKR1C3; 50 µM BTK inhibitor): 96.41% ± 1.48%
- Ki (recombinant AKR1C3; AKR1C3 0.005 mg/mL (0.135 μM)): 312 nM
- Ki (recombinant AKR1C3; AKR1C3 0.015 mg/mL (0.405 μM)): 332 nM
- Ki (recombinant AKR1C3; AKR1C3 0.030 mg/mL (0.811 μM)): 354 nM
- mode of inhibition (Lineweaver-Burk plot) (recombinant AKR1C3; recombinant AKR1C3 with increasing Dau): non-competitive/mixed
- IC50 (HCT116-EV cells; Homo sapiens, 72 h MTT, read-out: IC50 of BTK inhibitor alone (cell viability)): 17000 nM
Compound: C=CC(=O)N1CCC[C@@H](n2nc(-c3ccc(Oc4ccccc4)cc3)c3c(N)ncnc32)C1 [Ibrutinib, ibrutinib]
- inhibition of AKR1B10 activity (Dau reduction) (recombinant AKR1B10; 10 µM BTK inhibitor): 48.18% ± 2.10%
- inhibition of AKR1B10 activity (Dau reduction) (recombinant AKR1B10; 50 µM BTK inhibitor): 74.97% ± 0.87%
- decrease in AKR1C3 activity (Dau to Dau-ol) ([1]; 1 µM BTK inhibitor + 1 µM Dau): 29.40% ± 11.55%
- decrease in AKR1C3 activity (Dau to Dau-ol) ([1]; 5 µM BTK inhibitor + 1 µM Dau): 45.16% ± 0.86%
- decrease in AKR1C3 activity (Dau to Dau-ol) ([1]; 10 µM BTK inhibitor + 1 µM Dau): 60.72% ± 6%
- effect on expression (protein levels) of AKR1C3 [2]: negligible or absence of effects
- Fraction affected (Fa %) (HCT116-EV cells; [4]): 58.13 ± 12.2%
- Fraction affected (Fa %) (HCT116-EV cells; [5]): 77.56 ± 6.90%
- Fraction affected (Fa %) (HCT116-EV cells; BTK-inhibitor 10 µM + Dau 0.25 µM): 58.56 ± 7.79%
- Fraction affected (Fa %) (HCT116-EV cells; BTK-inhibitor 10 µM + Dau 0.50 µM): 81.92 ± 4.25%
- mean Cmax [3]: 37.1 ng/mL
- Fraction affected (Fa %) (A549 cells; BTK-inhibitor 1 µM + Dau 0.01 µM): 21.92 ± 2.37%
- Fraction affected (Fa %) (A549 cells; BTK-inhibitor 1 µM + Dau 0.25 µM): 43.16 ± 2.59%
- Fraction affected (Fa %) (A549 cells; BTK-inhibitor 1 µM + Dau 0.50 µM): 71.16 ± 6.46%
- Fraction affected (Fa %) (A549 cells; BTK-inhibitor 1 µM + Dau 0.75 µM): 86.63 ± 0.72%
- Fraction affected (Fa %) (A549 cells; BTK-inhibitor 1 µM + Dau 1.00 µM): 91.12 ± 0.72%
- Fraction affected (Fa %) (A549 cells; BTK-inhibitor 5 µM + Dau 0.01 µM): 33.76 ± 1.79%
- Fraction affected (Fa %) (A549 cells; [4]): 54.13 ± 5.98%
- Fraction affected (Fa %) (A549 cells; [5]): 85.67 ± 2.02%
- Fraction affected (Fa %) (A549 cells; BTK-inhibitor 5 µM + Dau 0.75 µM): 91.76 ± 0.78%
- Fraction affected (Fa %) (A549 cells; BTK-inhibitor 5 µM + Dau 1.00 µM): 94.00 ± 0.28%

- Km (recombinant AKR1C3; substrate Dau, recombinant AKR1C3, read-out: Km used in the Morrison equation): 387 ± 36 µM
Compound: COc1cccc2c1C(=O)c1c(O)c3c(c(O)c1C2=O)C[C@@](O)(C(C)=O)C[C@@H]3O[C@H]1C[C@H](N)[C@H](O)[C@H](C)O1 [Dau, daunorubicin]
